The results in this text go back to patent US6569461B1, “Dihydroxy open-acid and salts of HMG-CoA reductase inhibitors” (Merck & Co., Inc., priority 1999, dated 2003).

Data set [1] is described as follows: Plasma total and active HMG-CoA reductase inhibitory activity (enzymatic assay) in open, randomized, four-period crossover study with or without itraconazole. As to conditions: human, in vivo. Here is the method: (§1) Intraduodenal administration was accomplished via a nasoduodenal tube placed under fluoroscopic guidance by an experienced gastroenterologist just prior to dosing and removed following the 1-hr postdose measurements.
(§2) All calculations were based on designated sampling times or actual sampling times when they differed from the designated times by more than 10 minutes.

For data set [2] the following is noted: human, in vivo. Here is the method: as §1, §2

Turning to `CCC(C)(C)C(=O)O[C@H]1C[C@@H](C)C=C2C=C[C@H](C)[C@H](CC[C@@H](O)C[C@@H](O)CC(=O)O)[C@H]21` [SVA, dihydroxy open acid simvastatin], in data set [1], the “AUC, Active Inhibitors” value was 54.1 ± 28.5 ng eq·hr/mL and the “Cmax, Active Inhibitors” value was 5.7 ± 3.0 ng eq/mL. The “change by itraconazole pretreatment in AUC and Cmax of HMG-CoA reductase inhibitory activity (total or active)” value in data set [1] (male) was 1.3-1.5 fold. In addition, the “effect of itraconazole on apparent t1/2 values” in data set [2] is recorded as “essentially unchanged”. In data set [2] (male), the “effect of itraconazole measured as the unchanged drug” value is given as 1.5 fold.
